Measured values: ChEMBL document CHEMBL5608189, “Design and synthesis of unique indole-benzosulfonamide oleanolic acid derivatives as potent antibacterial agents against MRSA” (Eur J Med Chem, 2024)
≈ marks a conversion by molar mass, not a printed value. Calls of active or inactive are those of the source. The calls are words filed in the database; no cut-off is given here.

Key:
[1] = tested on: Staphylococcus aureus; assay: Antibacterial activity against methicillin-resistant Staphylococcus aureus measured after 24 hrs by susceptibility assay; assay type: functional
[2] = tested on: Staphylococcus aureus; assay: Resistant development in methicillin-resistant Staphylococcus aureus assessed as increase in MIC at sub-MIC measured after 20 passages; assay type: functional, organism-based
[3] = tested on: Staphylococcus aureus; assay: Antibacterial activity against Staphylococcus aureus ATCC 6538 assessed as inhibition of bacterial growth at 2 to 4 times MIC measured every 2 hrs for 24 hrs by time kill assay relative to control; assay type: functional
[4] = tested on: Staphylococcus aureus; assay: Antibacterial activity against methicillin-resistant Staphylococcus aureus assessed as inhibition of bacterial growth at 1 times MIC measured every 2 hrs for 24 hrs by time kill assay; assay type: functional, organism-based
[5] = tested on: Staphylococcus epidermidis; assay: Antibacterial activity against Staphylococcus epidermidis ATCC 12228 measured after 24 hrs by susceptibility assay; assay type: functional
[6] = tested on: Staphylococcus epidermidis; assay: Antibacterial activity against Staphylococcus epidermidis ATCC 12228 assessed as delay in bacterial growth at 0.5 times MIC measured every 2 hrs for 24 hrs by time kill assay; assay type: functional, organism-based
[7] = Hemolytic activity in rabbit red blood cells assessed as hemolytic rate at 128 times MIC measured after 1 hr by absorbance based method relative to control; assay type: toxicity, cell-based, Oryctolagus cuniculus, Erythrocyte; settings: rabbit red blood cells (erythrocytes), read-out: Activity
[8] = tested on: Staphylococcus aureus; assay: Antibacterial activity against methicillin-resistant Staphylococcus aureus assessed as delay in bacterial growth at 0.5 times MIC measured every 2 hrs for 24 hrs by time kill assay; assay type: functional, organism-based
[9] = tested on: Staphylococcus epidermidis; assay: Antibacterial activity against Staphylococcus epidermidis ATCC 12228 assessed as inhibition of bacterial growth at 1 times MIC measured every 2 hrs for 24 hrs by time kill assay; assay type: functional, organism-based
[10] = tested on: Staphylococcus epidermidis; assay: Antibacterial activity against Staphylococcus epidermidis ATCC 12228 assessed as inhibition of bacterial growth at 2 to 4 times MIC measured every 2 hrs for 24 hrs by time kill assay relative to control; assay type: functional
[11] = tested on: Staphylococcus aureus; assay: Antibacterial activity against Staphylococcus aureus ATCC 6538 assessed as delay in bacterial growth at 0.5 times MIC measured every 2 hrs for 24 hrs by time kill assay; assay type: functional, organism-based
[12] = tested on: Staphylococcus aureus; assay: Antibacterial activity against Staphylococcus aureus ATCC 6538 assessed as inhibition of bacterial growth at 1 times MIC measured every 2 hrs for 24 hrs by time kill assay; assay type: functional, organism-based
[13] = tested on: Staphylococcus aureus; assay: Antibacterial activity against Staphylococcus aureus ATCC 29213 measured after 24 hrs by susceptibility assay; assay type: functional
[14] = tested on: Staphylococcus aureus; assay: Bactericidal activity against Staphylococcus aureus ATCC 29213 measured after 24 hrs; assay type: functional
[15] = tested on: Staphylococcus aureus; assay: Bactericidal activity against Staphylococcus aureus ATCC 6538 measured after 24 hrs; assay type: functional
[16] = tested on: Staphylococcus aureus; assay: Bactericidal activity against methicillin-resistant Staphylococcus aureus measured after 24 hrs; assay type: functional
[17] = tested on: Staphylococcus aureus; assay: Antibacterial activity against methicillin-resistant Staphylococcus aureus assessed as inhibition of bacterial growth at 2 to 4 times MIC measured every 2 hrs for 24 hrs by time kill assay relative to control; assay type: functional
[18] = tested on: Staphylococcus epidermidis; assay: Bactericidal activity against Staphylococcus epidermidis ATCC 12228 measured after 24 hrs; assay type: functional
[19] = tested on: Staphylococcus aureus; assay: Antibacterial activity against Staphylococcus aureus ATCC 6538 measured after 24 hrs by susceptibility assay; assay type: functional
[20] = tested on: Staphylococcus aureus; assay: Induction of morphological changes in methicillin-resistant Staphylococcus aureus assessed as appearance of wrinkled and depressed cell membrane surface at 8 times MIC incubated for 8 hrs by SEM analysis; assay type: functional, organism-based
[21] = tested on: Staphylococcus aureus; assay: Induction of morphological changes in methicillin-resistant Staphylococcus aureus assessed as disruption of cellular structure at 8 times MIC incubated for 8 hrs by SEM analysis; assay type: functional, organism-based

SMILES	MIC [1] [µM]	MIC [5] [µM]	MIC [13] [µM]	MIC [19] [µM]	also measured
CC(=O)c1cccc2c3c([nH]c12)C(C)(C)[C@@H]1CC[C@]2(C)[C@H](CC=C4[C@@H]5CC(C)(C)CC[C@]5(C(=O)NS(=O)(=O)c5ccccc5)CC[C@]42C)[C@@]1(C)C3	1 (≈ 0.709 µg/mL)	0.5 (≈ 0.355 µg/mL)	2 (≈ 1.42 µg/mL)	1 (≈ 0.709 µg/mL)	Activity [2]: inactive; inhibition (INH) [3]: 100%; Activity [4]: Active; Activity [6]: Active; hemolysis at 1 h, 128 times MIC [7]: < 5%; Activity [8]: Active; Activity [9]: Active; inhibition (INH) [10]: 100%; Activity [11]: Active; Activity [12]: Active; MBC [14]: 2 µM (≈ 1.42 µg/mL); MBC [15]: 2 µM (≈ 1.42 µg/mL); MBC [16]: 4 µM (≈ 2.84 µg/mL); inhibition (INH) [17]: 100%; MBC [18]: 2 µM (≈ 1.42 µg/mL)
CCn1cc(C(=O)O)c(=O)c2cc(F)c(N3CCNCC3)cc21 [NORFLOXACIN]	4 (≈ 1.28 µg/mL)	1 (≈ 0.319 µg/mL)	2 (≈ 0.639 µg/mL)	2 (≈ 0.639 µg/mL)	Activity [20]: Active; Activity [21]: inactive
Cc1ccc(S(=O)(=O)NC(=O)[C@]23CCC(C)(C)C[C@H]2C2=CC[C@@H]4[C@@]5(C)Cc6c([nH]c7c(C(=O)O)cccc67)C(C)(C)[C@@H]5CC[C@@]4(C)[C@]2(C)CC3)cc1	2 (≈ 1.45 µg/mL)	2 (≈ 1.45 µg/mL)	2 (≈ 1.45 µg/mL)	1 (≈ 0.725 µg/mL)	Activity [2]: inactive; inhibition (INH) [3]: 100%; Activity [4]: Active; Activity [6]: Active; hemolysis at 1 h, 128 times MIC [7]: < 5%; Activity [8]: Active; Activity [9]: Active; inhibition (INH) [10]: 100%; Activity [11]: Active; Activity [12]: Active; MBC [14]: 2 µM (≈ 1.45 µg/mL); MBC [15]: 2 µM (≈ 1.45 µg/mL); MBC [16]: 16 µM (≈ 11.6 µg/mL); inhibition (INH) [17]: 100%; MBC [18]: 4 µM (≈ 2.9 µg/mL)
CC1(C)CC[C@]2(C(=O)NS(=O)(=O)c3ccccc3)CC[C@]3(C)C(=CC[C@@H]4[C@@]5(C)Cc6c([nH]c7ccc(F)cc67)C(C)(C)[C@@H]5CC[C@]43C)[C@@H]2C1	> 256	> 256	> 256	> 256	
CC1(C)CC[C@]2(C(=O)NS(=O)(=O)c3ccc(C(=O)O)cc3)CC[C@]3(C)C(=CC[C@@H]4[C@@]5(C)Cc6c([nH]c7ccc(C(=O)O)cc67)C(C)(C)[C@@H]5CC[C@]43C)[C@@H]2C1	64 (≈ 48.3 µg/mL)	64 (≈ 48.3 µg/mL)	64 (≈ 48.3 µg/mL)	64 (≈ 48.3 µg/mL)	
CC1(C)CC[C@]2(C(=O)Nc3ccc(-c4ccccc4)cc3)CC[C@]3(C)C(=CC[C@@H]4[C@@]5(C)Cc6c([nH]c7cc(C(=O)O)ccc67)C(C)(C)[C@@H]5CC[C@]43C)[C@@H]2C1	> 256	> 256	> 256	> 256	
CC1(C)CC[C@]2(C(=O)NS(=O)(=O)c3ccccc3)CC[C@]3(C)C(=CC[C@@H]4[C@@]5(C)Cc6c([nH]c7ccc(C(=O)O)cc67)C(C)(C)[C@@H]5CC[C@]43C)[C@@H]2C1	1 (≈ 0.711 µg/mL)	2 (≈ 1.42 µg/mL)	2 (≈ 1.42 µg/mL)	1 (≈ 0.711 µg/mL)	
CN[C@H](CC(C)C)C(=O)N[C@H]1C(=O)N[C@@H](CC(N)=O)C(=O)N[C@H]2C(=O)N[C@H]3C(=O)N[C@H](C(=O)N[C@H](C(=O)O)c4cc(O)cc(O)c4-c4cc3ccc4O)[C@H](O)c3ccc(c(Cl)c3)Oc3cc2cc(c3O[C@@H]2O[C@H](CO)[C@@H](O)[C@H](O)[C@H]2O[C@H]2C[C@](C)(N)[C@H](O)[C@H](C)O2)Oc2ccc(cc2Cl)[C@H]1O [VANCOMYCIN]	0.5 (≈ 0.725 µg/mL)	0.5 (≈ 0.725 µg/mL)	0.5 (≈ 0.725 µg/mL)	0.5 (≈ 0.725 µg/mL)	
